Paper PMC9402538, “Rational design of a sensitivity-enhanced tracer for discovering efficient APC–Asef inhibitors” (Nature Communications, 2022)
Residue numbers refer to the chain shown, from its start. “And” between values parts separate entries of the source, which are not always exact repeats. Equal values may be shown once. “Also recorded” adds a separate entry of the source. Read-outs that look alike come from different tables or passages of the source. Where a SMILES comes first, the peptide text is derived from it. The star is where a group is joined. Benzoyl(4-OMe) = COc1ccc(C(=O)*)cc1

Assays:
APC W593A = molecular target: T1, APC W593A (Homo sapiens, UniProt P25054, W593A); assay: ITC assay, APC W593A mutant; type: binding
T1 sequence (P25054 303-739 W593A): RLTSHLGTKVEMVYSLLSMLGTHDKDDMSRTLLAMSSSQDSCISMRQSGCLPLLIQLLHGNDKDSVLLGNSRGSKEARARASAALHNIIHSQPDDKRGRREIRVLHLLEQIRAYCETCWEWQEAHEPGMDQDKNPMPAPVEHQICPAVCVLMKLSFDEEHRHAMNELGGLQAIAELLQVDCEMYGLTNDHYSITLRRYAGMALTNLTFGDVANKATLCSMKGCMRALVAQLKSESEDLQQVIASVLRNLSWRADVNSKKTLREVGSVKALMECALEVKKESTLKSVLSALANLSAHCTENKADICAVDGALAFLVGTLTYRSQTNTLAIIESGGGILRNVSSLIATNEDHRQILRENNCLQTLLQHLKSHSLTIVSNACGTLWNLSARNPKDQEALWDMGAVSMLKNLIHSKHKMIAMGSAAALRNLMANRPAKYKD
Protocol: (§1) ITC experiments were performed using a MicroCal ITC200 calorimeter (Malvern Panalytical Ltd.). APC protein and peptide inhibitors were diluted with buffer containing 50 mM HEPES pH 7.5, 300 mM NaCl and 1 mM EDTA. The cells were loaded with APC proteins at 10–20 μM. All injections were performed using an initial injection of 0.2 μL followed by 19 injections of 2 μL at 100–200 μM. All measurements were carried out at 30 °C. The data were analyzed using a single-site binding model within MicroCal ITC200 analysis software to generate the stoichiometry (N), enthalpy changes (ΔH), entropy changes (ΔS), and the association constant (K) of binding. The changes in free energy (ΔG) were calculated (ΔG = ΔH-TΔS).

APC N641A = molecular target: T2, APC N641A (Homo sapiens, UniProt P25054, N641A); assay: ITC assay, APC N641A mutant; type: binding
T2 sequence (P25054 303-739 N641A): T1 sequence (P25054 303-739 W593A) with A291W, N339A
Protocol: as §1

His-tagged APC (303–739) = molecular target: T3, His-tagged APC (303–739) (Homo sapiens, UniProt P25054); assay: Surface plasmon resonance (Biacore 8K); type: binding
T3 sequence (P25054 303-739): T1 sequence (P25054 303-739 W593A) with A291W
Protocol: SPR experiments were performed using a Biacore 8 K system equipped with a CM5 sensor chip. […] The ligand at a 10 μg mL^-1 concentration in 10 mM sodium acetate, pH 5.0, was immobilized on flow cell 2; flow cell 1 was left blank to serve as a reference surface. […] To collect kinetic binding data, a serial concentration of peptide inhibitors in 1× PBS, pH 7.4, was injected over the two flow cells at a flow rate of 30 μL min^-1 and a temperature of 25 °C. The complex was allowed to associate and dissociate for 60–240 and 150–600 s, respectively. The experiments were performed in triplicate. […] The data were fitted to a Langmuir 1:1 binding model using the local Rmax analysis option available in the Biacore insight evaluation software.

SW480 cells = assay: Transwell migration assay, SW480; type: cell-based
Protocol: Cells were serum-starved for 8 h and then digested and resuspended in serum-free medium. […] The lower chambers were filled with 600 μL of complete medium. […] After 48 h, the Transwell inserts were washed twice with 1× PBS. The cells in the upper chambers of the Transwell inserts were gently removed using cotton-tipped applicators. The cells on the lower surface of the membrane were fixed with methanol and then stained with crystal violet for 10 min. The Transwell inserts were washed with distilled water to remove the excess crystal violet and then dried. The stained cells from different areas were imaged using light microscopy and counted using ImageJ (NIH).

COc1ccc(C(=O)N[C@@H](C)C(=O)NCC(=O)N[C@@H](CCC(=O)O)C(=O)N[C@@H](CO)C(=O)N[C@@H](CC(C)C)C(=O)N[C@@H](Cc2ccc(O)cc2)C(=O)N[C@@H](CCC(=O)O)C(N)=O)cc1 [MAI-516] ({Benzoyl(4-OMe)}-AGESLYE-NH2)
reduction of binding affinity vs APC WT (APC W593A): approximately 100 fold
-TΔS (APC W593A; 30 °C): 11.0 kJ/mol
L/P ratio (APC W593A; 30 °C): 0.92
ΔG (APC W593A; 30 °C): -37.1 kJ/mol
ΔH (APC W593A; 30 °C): -48.1 kJ/mol
Kd (APC W593A; ITC, 30 °C): 400 nM
reduction of binding affinity vs APC WT (APC N641A): ~2 fold
-TΔS (APC N641A; 30 °C): 22.8 kJ/mol
L/P ratio (APC N641A; 30 °C): 0.88
ΔG (APC N641A; 30 °C): -46.0 kJ/mol
Kd (APC N641A; ITC, 30 °C): 12 nM
RT (RT = 1/koff) (His-tagged APC (303–739)): 135 s
Relative response at equilibrium (His-tagged APC (303–739); 1.5625 nM): 2.9457 RU
Relative response at equilibrium (His-tagged APC (303–739); 3.125 nM): 3.565 RU
Relative response at equilibrium (His-tagged APC (303–739); 6.25 nM): 5.67 RU
Relative response at equilibrium (His-tagged APC (303–739); 12.5 nM): 10.1156 RU
Relative response at equilibrium (His-tagged APC (303–739); 25 nM): 17.7318 RU
Relative response at equilibrium (His-tagged APC (303–739); 50 nM): 24.4156 RU
Relative response at equilibrium (His-tagged APC (303–739); 100 nM): 27.6681 RU
Relative response at equilibrium (His-tagged APC (303–739); 200 nM): 31.5021 RU
Kd (His-tagged APC (303–739); SPR, Repeat 1, read-out: KD Repeat 1): 19.9 nM
koff (His-tagged APC (303–739); SPR, Repeat 1, read-out: koff Repeat 1): 0.00848 s⁻¹
kon (His-tagged APC (303–739); SPR, Repeat 1, read-out: kon Repeat 1): 427000 M⁻¹ s⁻¹
Kd (His-tagged APC (303–739); SPR, Repeat 2, read-out: KD Repeat 2): 18.8 nM
koff (His-tagged APC (303–739); SPR, Repeat 2, read-out: koff Repeat 2): 0.00807 s⁻¹
kon (His-tagged APC (303–739); SPR, Repeat 2, read-out: kon Repeat 2): 430000 M⁻¹ s⁻¹
Kd (His-tagged APC (303–739); SPR, Repeat 3, read-out: KD Repeat 3): 16 nM
koff (His-tagged APC (303–739); SPR, Repeat 3, read-out: koff Repeat 3): 0.00564 s⁻¹
kon (His-tagged APC (303–739); SPR, Repeat 3, read-out: kon Repeat 3): 353000 M⁻¹ s⁻¹
Kd (His-tagged APC (303–739); SPR, mean of 3 repeats, read-out: KD mean): 18.2 nM
koff (His-tagged APC (303–739); SPR, mean of 3 repeats, read-out: koff mean): 0.0074 s⁻¹
kon (His-tagged APC (303–739); SPR, mean of 3 repeats, read-out: kon mean): 403000 M⁻¹ s⁻¹
RT (His-tagged APC (303–739); SPR, single value printed in the Repeat 1 column): 135 s
Relative migration ability (single replicates) (SW480 cells; FigS10e, relative to DMSO): 1.11 and 1.06 and 0.96
Relative migration ability, mean (SW480 cells; FigS10e, relative to DMSO): 1.04
cell migration (transwell) (SW480 cells; SW480, MAI-516 50 μM, 48 h): dose not inhibit the migration; also recorded: no apparent impact
